According to ChEMBL document CHEMBL1681649, “Design, synthesis and biological evaluation of novel 4-hydroxybenzene acrylic acid derivatives” (Bioorg Med Chem Lett, 2011):

Tests used:
Mus musculus [1] = assay: Antiinflammatory activity in xylene-induced Kunming mouse ear edema model assessed as suppression of ear swelling at 300 mg/kg, po; format: functional
Mus musculus [2] = assay: Antiinflammatory activity in xylene-induced Kunming mouse ear edema model assessed as suppression of ear swelling at 150 mg/kg, po; format: functional
Mus musculus [3] = assay: Cardiotoxicity in Kunming mouse assessed as pathological changes at 150 mg/kg, po after 12 days; format: toxicity, organism-based; set-up: dose 150 mg/kg, route oral; conditions: in vivo, 288 h
Mus musculus [4] = assay: Antiinflammatory activity in xylene-induced Kunming mouse ear edema model assessed as suppression of ear swelling at 75 mg/kg, po; format: functional
Mus musculus [5] = assay: Cardiotoxicity in Kunming mouse assessed as pathological changes at 100 mg/kg, po after 12 days; format: toxicity, organism-based; set-up: dose 100 mg/kg, route oral; conditions: in vivo, 288 h
Mus musculus [6] = assay: Antiinflammatory activity in xylene-induced Kunming mouse ear edema model assessed as suppression of ear swelling at 100 mg/kg, po; format: functional

COc1cc(/C=C(/C(=O)O)c2ccc(S(C)(=O)=O)cc2)ccc1OC(C)=O
Activity (Mus musculus [1]): 45.29% | Activity (Mus musculus [2]): 26.12% | Activity (Mus musculus [3]): Non-toxic | Activity (Mus musculus [4]): 12.38%

COc1cc(/C=C(/C(=O)O)c2ccc(S(C)(=O)=O)cc2)ccc1O
Activity (Mus musculus [1]): 9.97%

COc1ccc(/C=C(/C(=O)O)c2ccc(S(C)(=O)=O)cc2)cc1OC
Activity (Mus musculus [1]): 15.92%

CC(=O)Oc1ccc(/C=C(/C(=O)O)c2ccc(S(C)(=O)=O)cc2)cc1
Activity (Mus musculus [1]): 44.75% | Activity (Mus musculus [2]): 32.87% | Activity (Mus musculus [4]): 23.34%

CCOC(=O)/C(=C/c1ccc(OC(C)=O)c(OC)c1)c1ccc(S(C)(=O)=O)cc1
Activity (Mus musculus [1]): 24.11%

CCOC(=O)/C(=C/c1ccc(O)c(OC)c1)c1ccc(S(C)(=O)=O)cc1
Activity (Mus musculus [1]): 34.62%

CCOC(=O)/C(=C/c1ccc(OC(C)=O)c(Br)c1)c1ccc(S(C)(=O)=O)cc1
Activity (Mus musculus [4]): 0%

CS(=O)(=O)c1ccc(/C(=C\c2ccccc2)C(=O)O)cc1
Activity (Mus musculus [1]): 17.49%

COc1cc(/C=C(/C(=O)O)c2ccccc2)ccc1OC(C)=O
Activity (Mus musculus [1]): 21.86%

COc1ccc2c(c1)c(CC(=O)O)c(C)n2C(=O)c1ccc(Cl)cc1 [INDOMETHACIN]
Activity (Mus musculus [5]): Non-toxic | Activity (Mus musculus [6]): 37.03%
